Measured values published in article PMC1247619 (Environmental Health Perspectives, 2004).

Tests used:
human and mouse ER-α = tested on: human and mouse ER-α; design: method as in Matthews et al. 2000; conditions: ref Matthews et al. 2000; cited from earlier work
hER-β = target: T1, hER-β (Homo sapiens, UniProt Q92731); assay: In vitro estrogenic activity assay, stable HEK cell line with hER-β and ERE-luciferase reporter; assay type: cell-based
T1 construct: expressed in transfected cells
Protocol: (§1) Briefly, cells were plated in 96-well tissue culture plates (NUNC, Life Technologies, Breda, The Netherlands) in medium consisting of phenol red–free Dulbecco’s modified Eagle’s medium/F12 (1:1) medium containing 3 × 10^−8 M selenite, 10 μg/mL transferrin, 0.2% (wt/vol) bovine serum albumin, and 5% (wt/vol) dextran-coated charcoal-stripped fetal calf serum. […] Luciferase activity of 25 μL cell lysate was measured with the Luclite Luciferase Reporter gene assay kit (Perkin-Elmer, Brussels, Belgium) according to the manufacturer’s instructions using 25 μL Luclite solution on a Topcount liquid scintillation counter (Perkin-Elmer).
(§2) The in vitro dose–response activation curves obtained with the stable cell lines were fitted using the sigmoidal fit {y = a0 + a1/1 + exp[–(x – a2)/a3]} in Slidewrite Plus for Windows (version 3.0; BIS, Ridderkerk, The Netherlands), which determines the fitting coefficients by an iterative process minimizing the c2 merit function (least squares criterion). […] The cell line data shown are the average of at least two independent experiments with each experimental point performed in triplicate. Data are shown as a percentage of maximal induction by E2.

human ER-α (hER-α) = target: T2, human ER-α (hER-α) (Homo sapiens, UniProt P03372); assay: In vitro estrogenic activity assay, stable HEK cell line with hER-α and ERE-luciferase reporter; assay type: cell-based
T2 construct: expressed in transfected cells
T2 sequence (P03372 1-595): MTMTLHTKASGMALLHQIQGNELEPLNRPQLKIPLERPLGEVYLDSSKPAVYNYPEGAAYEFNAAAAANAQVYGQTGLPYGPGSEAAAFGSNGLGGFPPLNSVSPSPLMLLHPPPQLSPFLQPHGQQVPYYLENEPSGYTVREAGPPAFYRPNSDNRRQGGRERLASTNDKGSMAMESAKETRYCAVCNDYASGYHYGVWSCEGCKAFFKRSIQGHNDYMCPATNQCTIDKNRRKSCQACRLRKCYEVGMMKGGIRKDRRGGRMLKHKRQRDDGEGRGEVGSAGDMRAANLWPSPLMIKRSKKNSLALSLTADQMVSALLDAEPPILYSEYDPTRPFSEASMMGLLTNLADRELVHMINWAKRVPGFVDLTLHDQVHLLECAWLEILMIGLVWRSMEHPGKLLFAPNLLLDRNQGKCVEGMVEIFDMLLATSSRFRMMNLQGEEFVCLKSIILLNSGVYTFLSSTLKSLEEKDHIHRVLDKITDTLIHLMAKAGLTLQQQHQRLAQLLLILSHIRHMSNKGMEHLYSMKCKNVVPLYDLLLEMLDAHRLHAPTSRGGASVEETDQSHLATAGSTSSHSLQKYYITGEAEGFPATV
Protocol: as §1, §2

[1] = pregnant mice, 100 mg/kg subcutaneously; ref Domoradzki et al. 2003; Shin et al. 2002; Uchida et al. 2002; cited from earlier work
ER = tested on: ER; design: method as in Nagel et al. (2001); conditions: 1 mg/kg; ref Nagel et al. (2001); cited from earlier work
[2] = design: method as in Takahashi and Oishi 2000; conditions: pregnant rats; ref Takahashi and Oishi 2000; cited from earlier work
estrogen receptors (ERs) [3] = assay: Ex vivo luciferase measurement in lysates of transgenic embryos exposed in utero; design: species or system mouse
Protocol: (§3) To obtain transgenic embryos, heterozygote transgenic males from line INS3 were mated with wild-type females (F1 from C57Bl/6J × CBA). Heterozygote males were used so that every litter would also contain wild type embryos, which could serve as an internal negative control. Females were checked daily for the presence of a vaginal plug, and when a plug was detected, that day was designated 0.5 day postcoitum (dpc).
(§4) Animal experiments were performed with approval of the Netherlands Academy of Arts and Sciences Animal Ethics Committee. The IVIS imaging experiments were done with additional approval of the Animal Ethics Committee of NV Organon.
When embryos were isolated from the amniotic membranes, we kept tails separated and stored at –20°C for subsequent DNA isolation and polymerase chain reaction for presence of the transgene, as described previously ([Legler et al. 2000]). Only transgenic embryos were used for further luciferase measurement. Subsequently, embryos were thawed on ice and lysis buffer [1% (vol/vol) Triton X-100, 2.5 × 10^−2 M glycylglycine, 1.5 × 10^−2 M MgSO4, 4 × 10^−3 M EGTA, and 1 × 10^−3 M dithiothreitol (DTT)] was added. Next, samples were sonicated, the lysate centrifuged, and the supernatant collected. […] Luciferase activity was corrected for protein content as measured with the Bradford assay.
(§5) We considered one litter as a statistical unit rather than one embryo because we assumed that all embryos in one litter were subject to the same variation of the compound injection and placental transfer. Therefore, the average ± SEM per litter was calculated, and these were then averaged to express the luciferase activity per group. All data were log-transformed and tested for normality with the Shapiro-Wilks test using SPSS 12.0 (SPSS, Chicago, IL, USA).

uterine wet weight = conditions: cited from earlier work
estrogen receptors (ERs) [4] = assay: In vivo (in utero) luciferase measurement with IVIS imaging in transgenic ERE-luciferase embryos; design: species or system mouse; conditions: 10,000 μg/kg, 8 hr after exposure
Protocol: as §3, §4, §5

estrogen receptors (ERs) [5] = conditions: adult transgenic animals; ref Lemmen et al. 2004; cited from earlier work
[6] = design: method as in McLachlan 1977; conditions: 14C-DES injected in pregnant mice; ref McLachlan 1977; cited from earlier work

T1 sequence (Q92731 whole entry): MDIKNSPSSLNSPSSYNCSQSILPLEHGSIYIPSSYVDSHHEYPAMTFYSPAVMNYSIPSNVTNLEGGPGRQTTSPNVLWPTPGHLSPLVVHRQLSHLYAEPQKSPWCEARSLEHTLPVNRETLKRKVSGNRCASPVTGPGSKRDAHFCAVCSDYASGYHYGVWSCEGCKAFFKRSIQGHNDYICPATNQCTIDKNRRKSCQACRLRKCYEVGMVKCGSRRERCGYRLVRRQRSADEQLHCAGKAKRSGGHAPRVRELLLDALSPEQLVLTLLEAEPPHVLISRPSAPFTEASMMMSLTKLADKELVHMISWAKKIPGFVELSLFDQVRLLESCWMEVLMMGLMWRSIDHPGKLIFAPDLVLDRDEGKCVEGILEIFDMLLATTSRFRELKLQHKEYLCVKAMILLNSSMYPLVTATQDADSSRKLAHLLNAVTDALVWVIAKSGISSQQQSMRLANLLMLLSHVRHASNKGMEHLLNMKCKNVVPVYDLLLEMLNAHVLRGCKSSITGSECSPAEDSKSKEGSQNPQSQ

SMILES | affinity of human versus mouse ER-α (human and mouse ER-α) | times less active than DES toward ER-β transactivation (hER-β) | times less active than DES in activating ER-α (human ER-α (hER-α)) | time after exposure at which detected in fetal sera, liver, brain, uterus and testes [1] [min] | ER transcriptional activity in the adult uterus (ER) | time of peak concentration in fetal circulation [2] [min] | luciferase activity versus oil-exposed controls, embryo lysates (estrogen receptors (ERs) [3]; 1,000 μg/kg, 8 hr after exposure) | luciferase activity versus oil-exposed controls, embryo lysates (estrogen receptors (ERs) [3]; 10,000 μg/kg, 8 hr after exposure) | dose at which in utero luciferase activation was significant from oil-exposed controls (estrogen receptors (ERs) [3]; 8 hr after exposure) [mg/kg] | luciferase activity versus oil-exposed animals, embryo lysates (estrogen receptors (ERs) [3]; 24 hr after exposure, BPA 10–10,000 μg/kg (Figure 2)) | uterine wet weight response (uterine wet weight; 1 mg/kg, ref Nagel et al. (2001)) | uterotrophic response (uterine wet weight; CD-1 mice, 100 mg/kg, ref Markey et al. 2001) | activity in the uterine wet weight assay (uterine wet weight; CFLP mice, 0.5 mg/mouse (~ 16.7 mg/kg), ref Coldham et al. 1997) | toxicity in the uterine wet weight assay (uterine wet weight; mouse, in vivo, 167 mg/kg) | luciferase activity versus oil-exposed animals, IVIS (estrogen receptors (ERs) [4]) | time of peak luciferase activity after exposure (estrogen receptors (ERs) [5]) [h] | time of peak fetal plasma levels [6] [h]
CC(C)(c1ccc(O)cc1)c1ccc(O)cc1 [BPA, bisphenol A] | same affinity | 1,400 times | 5,000 times | 30 | significant increase | 15 to 20 | significantly higher | significantly higher | 1 | no difference | did not induce | induced | inactive | toxic | not statistically significant |  | 
C[C@]12CC[C@@H]3c4ccc(O)cc4CC[C@H]3[C@@H]1CC[C@@H]2O [E2, 17β-estradiol] |  |  |  |  |  |  |  |  |  |  |  |  |  |  |  | 8 | 
CC/C(=C(/CC)c1ccc(O)cc1)c1ccc(O)cc1 [DES, diethylstilbestrol, reference compound] | same affinity |  |  |  |  |  |  |  |  |  |  |  |  |  |  |  | 2
